PubChem BioAssay (NCI)
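48-hour exposure; five concentrations; linearly interpolated endpoints. At the TGI there is no net growth.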

Experiments:
Test in all cases: growth of human tumour cells (NCI), 48 h
[1] = test system: SF-295 CNS
[2] = test system: SK-MEL-2 melanoma
[3] = test system: MALME-3M melanoma
[4] = test system: HT29 colon
[5] = test system: OVCAR-3 ovarian
[6] = test system: DMS 273 small cell lung
[7] = test system: OVCAR-8 ovarian
[8] = test system: LOX IMVI melanoma
[9] = test system: KM20L2 colon
[10] = test system: SNB-78 CNS
[11] = test system: TK-10 renal
[12] = test system: OVCAR-4 ovarian
[13] = test system: RXF 393 renal
[14] = test system: SK-MEL-5 melanoma
[15] = test system: 786-0 renal
[16] = test system: M19-MEL melanoma
[17] = test system: UO-31 renal
[18] = test system: DMS 114 small cell lung
[19] = test system: UACC-257 melanoma
[20] = test system: HOP-92 NSCLC
[21] = test system: SNB-75 CNS
[22] = test system: IGROV1 ovarian
[23] = test system: ACHN renal
[24] = test system: HCC-2998 colon
[25] = test system: NCI-H460 lung
[26] = test system: NCI-H23 lung
[27] = test system: M14 melanoma
[28] = test system: SN12C renal
[29] = test system: RXF-631 renal
[30] = test system: HOP-62 NSCLC
[31] = test system: U251 CNS
[32] = test system: HCT-116 colon
[33] = test system: CAKI-1 renal
[34] = test system: UACC-62 melanoma
[35] = test system: SR leukemia
[36] = test system: HOP-18 NSCLC
[37] = test system: EKVX NSCLC
[38] = test system: HL-60(TB) leukemia
[39] = test system: A498 renal
[40] = test system: SW-620 colon
[41] = test system: HCT-15 colon
[42] = test system: CCRF-CEM leukemia
[43] = test system: RPMI-8226 leukemia
[44] = test system: SK-OV-3 ovarian
[45] = test system: SNB-19 CNS
[46] = test system: DLD-1 colon
[47] = test system: A549 NSCLC
[48] = test system: SF-268 CNS
[49] = test system: LXFL 529 NSCLC
[50] = test system: COLO 205 colon
[51] = test system: OVCAR-5 ovarian
[52] = test system: NCI-H226 lung
[53] = test system: KM12 colon
[54] = test system: MOLT-4 leukemia
[55] = test system: NCI-H522 lung
[56] = test system: K-562 leukemia
[57] = test system: SF-539 CNS
[58] = test system: XF 498 CNS
[59] = test system: SK-MEL-28 melanoma

For `COC(=O)/C([Se]c1c(C)cc(C)cc1C)=C(\[Se]c1c(C)cc(C)cc1C)C(=O)OC`, the TGI [1] was > 100 µM, the TGI [2] was > 100 µM and the TGI [3] was > 100 µM. The TGI [4] was > 100 µM, the TGI [5] was > 100 µM and the TGI [6] was > 100 µM. The TGI [7] was > 100 µM, the TGI [8] was > 100 µM and the TGI [9] was > 100 µM. The TGI [10] was > 100 µM, the TGI [11] was > 100 µM and the TGI [12] was > 100 µM. The TGI [13] was > 100 µM, the TGI [14] was > 100 µM and the TGI [15] was > 100 µM. The TGI [16] was > 100 µM, the TGI [17] was > 100 µM and the TGI [18] was > 100 µM. For the same compound, the TGI [19] was > 100 µM, the TGI [20] was > 100 µM and the TGI [21] was > 100 µM. For the same compound, the TGI [22] was > 100 µM, the TGI [23] was > 100 µM and the TGI [24] was > 100 µM. For the same compound, the TGI [25] was > 100 µM, the TGI [26] was > 100 µM and the TGI [27] was > 100 µM. For the same compound, the TGI [28] was > 100 µM, the TGI [29] was > 100 µM and the TGI [30] was > 100 µM. For the same compound, the TGI [31] was > 100 µM, the TGI [32] was > 100 µM and the TGI [33] was > 100 µM. The TGI [34] was > 100 µM, the TGI [35] was > 100 µM and the TGI [36] was > 100 µM. For the same compound, the TGI [37] was > 100 µM, the TGI [38] was > 100 µM and the TGI [39] was > 100 µM. The TGI [40] was > 100 µM, the TGI [41] was > 100 µM and the TGI [42] was > 100 µM. For the same compound, the TGI [43] was > 100 µM, the TGI [44] was > 100 µM and the TGI [45] was > 100 µM. For the same compound, the TGI [46] was > 100 µM, the TGI [47] was > 100 µM and the TGI [48] was > 100 µM. For the same compound, the TGI [49] was > 100 µM, the TGI [50] was > 100 µM and the TGI [51] was > 100 µM. The TGI [52] was > 100 µM, the TGI [53] was > 100 µM and the TGI [54] was > 100 µM. For the same compound, the TGI [55] was > 100 µM and the TGI [56] was > 100 µM.

For `C[S+](C)CCOC(=O)C(=[N+]=[N-])c1ccc([N+](=O)[O-])cc1`, the TGI [1] was > 100 µM, the TGI [2] was > 100 µM and the TGI [3] was > 100 µM. For the same compound, the TGI [4] was > 100 µM, the TGI [5] was > 100 µM and the TGI [6] was > 100 µM. For the same compound, the TGI [7] was > 100 µM, the TGI [9] was > 100 µM and the TGI [10] was > 100 µM. The TGI [11] was > 100 µM, the TGI [12] was > 100 µM and the TGI [13] was > 100 µM. For the same compound, the TGI [14] was > 100 µM, the TGI [57] was > 100 µM and the TGI [15] was > 100 µM. For the same compound, the TGI [16] was > 100 µM, the TGI [17] was > 100 µM and the TGI [18] was > 100 µM. For the same compound, the TGI [19] was > 100 µM, the TGI [21] was > 100 µM and the TGI [22] was > 100 µM. For the same compound, the TGI [23] was > 100 µM, the TGI [24] was > 100 µM and the TGI [25] was > 100 µM. For the same compound, the TGI [26] was > 100 µM, the TGI [27] was > 100 µM and the TGI [28] was > 100 µM. For the same compound, the TGI [29] was > 100 µM, the TGI [30] was > 100 µM and the TGI [31] was > 100 µM. The TGI [32] was > 100 µM, the TGI [33] was > 100 µM and the TGI [34] was > 100 µM. For the same compound, the TGI [36] was > 100 µM, the TGI [37] was > 100 µM and the TGI [38] was > 100 µM. For the same compound, the TGI [39] was > 100 µM, the TGI [40] was > 100 µM and the TGI [41] was > 100 µM. For the same compound, the TGI [42] was > 100 µM, the TGI [43] was > 100 µM and the TGI [44] was > 100 µM. For the same compound, the TGI [45] was > 100 µM, the TGI [58] was > 100 µM and the TGI [47] was > 100 µM. For the same compound, the TGI [48] was > 100 µM, the TGI [49] was > 100 µM and the TGI [50] was > 100 µM. The TGI [51] was > 100 µM, the TGI [52] was > 100 µM and the TGI [53] was > 100 µM. For the same compound, the TGI [54] was > 100 µM, the TGI [55] was > 100 µM and the TGI [56] was > 100 µM.

For `Cn1c(=O)nc2n(-c3cccc(Br)c3)c3ccccc3nc-2c1=O`, the TGI [1] was 18.6 µM, the TGI [2] was 18.2 µM and the TGI [3] was 6.46 µM. For the same compound, the TGI [5] was 5.94 µM, the TGI [6] was 14.7 µM and the TGI [7] was 25.4 µM. For the same compound, the TGI [9] was 6.97 µM, the TGI [10] was 33.3 µM and the TGI [11] was 24.1 µM. The TGI [12] was 14.6 µM, the TGI [13] was 24 µM and the TGI [14] was 3.41 µM. For the same compound, the TGI [57] was 18.2 µM, the TGI [15] was 16.7 µM and the TGI [16] was 3.03 µM. For the same compound, the TGI [17] was 26.3 µM, the TGI [18] was 4.45 µM and the TGI [19] was 6.58 µM. For the same compound, the TGI [21] was 22.2 µM, the TGI [22] was 23.7 µM and the TGI [23] was 13.7 µM. For the same compound, the TGI [24] was 9.59 µM, the TGI [25] was 12.2 µM and the TGI [26] was 4.91 µM. For the same compound, the TGI [27] was 10.1 µM, the TGI [28] was 17.1 µM and the TGI [30] was 28 µM. For the same compound, the TGI [31] was 19.2 µM, the TGI [32] was 18.1 µM and the TGI [33] was 32.7 µM. The TGI [34] was 3.27 µM, the TGI [36] was 19.4 µM and the TGI [37] was 13.3 µM. For the same compound, the TGI [38] was 9.76 µM, the TGI [39] was 22.1 µM and the TGI [40] was 8.53 µM. For the same compound, the TGI [41] was 15.1 µM, the TGI [42] was 26.9 µM and the TGI [43] was 37.7 µM. It also gave a TGI [44] of 50.5 µM, a TGI [45] of 6.86 µM and a TGI [46] of 29.1 µM. It also gave a TGI [58] of 15.8 µM, a TGI [47] of 14.5 µM and a TGI [48] of 23.4 µM. It also gave a TGI [49] of 19.5 µM, a TGI [50] of 9.64 µM and a TGI [51] of 26.1 µM. For the same compound, the TGI [52] was 22.2 µM, the TGI [53] was 21 µM and the TGI [55] was 20.1 µM. The TGI [56] was 35.9 µM.

`CCOC(=O)C12CCC(=O)C=C1[C@@H](C)C(=O)CC2` (some centres not stated) was tested, and the TGI [1] was > 100 µM, the TGI [2] was > 100 µM and the TGI [3] was > 100 µM. For the same compound, the TGI [4] was > 100 µM, the TGI [5] was > 100 µM and the TGI [6] was > 100 µM. The TGI [7] was > 100 µM, the TGI [8] was > 100 µM and the TGI [9] was > 100 µM. For the same compound, the TGI [11] was > 100 µM, the TGI [13] was > 100 µM and the TGI [14] was > 100 µM. The TGI [16] was > 100 µM, the TGI [17] was > 100 µM and the TGI [18] was > 100 µM. The TGI [19] was > 100 µM, the TGI [20] was > 100 µM and the TGI [21] was > 100 µM. For the same compound, the TGI [22] was > 100 µM, the TGI [23] was > 100 µM and the TGI [24] was > 100 µM. For the same compound, the TGI [25] was > 100 µM, the TGI [26] was > 100 µM and the TGI [27] was > 100 µM. For the same compound, the TGI [28] was > 100 µM, the TGI [30] was > 100 µM and the TGI [31] was > 100 µM. For the same compound, the TGI [32] was > 100 µM, the TGI [34] was > 100 µM and the TGI [35] was > 100 µM. For the same compound, the TGI [37] was > 100 µM, the TGI [38] was > 100 µM and the TGI [40] was > 100 µM. For the same compound, the TGI [59] was > 100 µM, the TGI [41] was > 100 µM and the TGI [43] was > 100 µM. The TGI [44] was > 100 µM, the TGI [46] was > 100 µM and the TGI [58] was > 100 µM. The TGI [48] was > 100 µM, the TGI [49] was > 100 µM and the TGI [50] was > 100 µM. For the same compound, the TGI [51] was > 100 µM, the TGI [52] was > 100 µM and the TGI [53] was > 100 µM.
